In PMC12090182, “Repurposing of the RIPK1-Selective Benzo[1,4]oxazepin-4-one Scaffold for the Development of a Type III LIMK1/2 Inhibitor” (ACS Chemical Biology, 2025):

Assays:
Assay in all cases: scanMAX KINOMEscan (Eurofins)
Type in all cases: binding
[1] = target: RIPK2 (Homo sapiens, UniProt O43353); conditions: 1000 nM, read-out: Percent Control
Text: (§1) Supplement cb5c00097_si_002.xlsx, sheet "Table S6 (Eurofins Selectivity)" | column: Percent Control

[2] = target: TSSK1B (Homo sapiens, UniProt Q9BXA7); conditions: 1000 nM, read-out: Percent Control
Text: as §1

[3] = target: INSR (Homo sapiens, UniProt P06213); conditions: 1000 nM, read-out: Percent Control
Text: as §1

[4] = target: DAPK2 (Homo sapiens, UniProt Q9UIK4); conditions: 1000 nM, read-out: Percent Control
Text: as §1

[5] = target: PAK2 (Homo sapiens, UniProt Q13177); conditions: 1000 nM, read-out: Percent Control
Text: as §1

[6] = target: FYN (Homo sapiens, UniProt P06241); conditions: 1000 nM, read-out: Percent Control
Text: as §1

[7] = target: CASK (Homo sapiens, UniProt O14936); conditions: read-out: Percent Control
Text: as §1

[8] = target: IRAK3 (Homo sapiens, UniProt Q9Y616); conditions: read-out: Percent Control
Text: as §1

[9] = target: ASK2 (Homo sapiens, UniProt O95382); conditions: 1000 nM, read-out: Percent Control
Text: as §1

[10] = target: FLT1 (Homo sapiens, UniProt P17948); conditions: 1000 nM, read-out: Percent Control
Text: as §1

[11] = target: TBK1 (Homo sapiens, UniProt Q9UHD2); conditions: 1000 nM, read-out: Percent Control
Text: as §1

[12] = target: ADCK3 (Homo sapiens, UniProt Q8NI60); conditions: read-out: Percent Control
Text: as §1

[13] = target: FAK (Homo sapiens, UniProt Q05397); conditions: 1000 nM, read-out: Percent Control
Text: as §1

[14] = target: CDKL2 (Homo sapiens, UniProt Q92772); conditions: read-out: Percent Control
Text: as §1

[15] = target: ICK (Homo sapiens, UniProt Q9UPZ9); conditions: 1000 nM, read-out: Percent Control
Text: as §1

[16] = target: AURKC (Homo sapiens, UniProt Q9UQB9); conditions: 1000 nM, read-out: Percent Control
Text: as §1

[17] = target: PLK1 (Homo sapiens, UniProt P53350); conditions: 1000 nM, read-out: Percent Control
Text: as §1

[18] = target: DDR1 (Homo sapiens, UniProt Q08345); conditions: read-out: Percent Control
Text: as §1

[19] = target: TNK1 (Homo sapiens, UniProt Q13470); conditions: 1000 nM, read-out: Percent Control
Text: as §1

[20] = target: MYO3B (Homo sapiens, UniProt Q8WXR4); conditions: 1000 nM, read-out: Percent Control
Text: as §1

[21] = target: PRKCQ (Homo sapiens, UniProt Q04759); conditions: 1000 nM, read-out: Percent Control
Text: as §1

[22] = target: RPS6KA4(Kin.Dom.1-N-terminal) (Homo sapiens, UniProt O75676); conditions: compound concentration 100 nM; Entrez RPS6KA4; read-out: Percent Control
Text: as §1

[23] = target: STK35 (Homo sapiens, UniProt Q8TDR2); conditions: compound concentration 100 nM; Entrez STK35; read-out: Percent Control
Text: as §1

[24] = target: ABL1-nonphosphorylated (Homo sapiens, UniProt P00519); conditions: read-out: Percent Control
Text: as §1

[25] = target: MAP4K5 (Homo sapiens, UniProt Q9Y4K4); conditions: 1000 nM, read-out: Percent Control
Text: as §1

[26] = target: EPHA2 (Homo sapiens, UniProt P29317); conditions: read-out: Percent Control
Text: as §1

[27] = target: ABL2 (Homo sapiens, UniProt P42684); conditions: read-out: Percent Control
Text: as §1

[28] = target: ASK1 (Homo sapiens, UniProt Q99683); conditions: read-out: Percent Control
Text: as §1

[29] = target: ACVR1 (Homo sapiens, UniProt Q04771); conditions: 1000 nM, read-out: Percent Control
Text: as §1

[30] = target: PCTK1 (Homo sapiens, UniProt Q00536); conditions: compound concentration 100 nM; Entrez CDK16; read-out: Percent Control
Text: as §1

[31] = target: HPK1 (Homo sapiens, UniProt Q92918); conditions: read-out: Percent Control
Text: as §1

[32] = target: AKT1 (Homo sapiens, UniProt P31749); conditions: 1000 nM, read-out: Percent Control
Text: as §1

[33] = target: CDK5 (Homo sapiens, UniProt Q00535); conditions: read-out: Percent Control
Text: as §1

[34] = target: DAPK3 (Homo sapiens, UniProt O43293); conditions: 1000 nM, read-out: Percent Control
Text: as §1

[35] = target: PRKCH (Homo sapiens, UniProt P24723); conditions: compound concentration 100 nM; Entrez PRKCH; read-out: Percent Control
Text: as §1

[36] = target: CAMKK2 (Homo sapiens, UniProt Q96RR4); conditions: 1000 nM, read-out: Percent Control
Text: as §1

[37] = target: LCK (Homo sapiens, UniProt P06239); conditions: 1000 nM, read-out: Percent Control
Text: as §1

Chain of IRAK3 (Q9Y616 whole entry): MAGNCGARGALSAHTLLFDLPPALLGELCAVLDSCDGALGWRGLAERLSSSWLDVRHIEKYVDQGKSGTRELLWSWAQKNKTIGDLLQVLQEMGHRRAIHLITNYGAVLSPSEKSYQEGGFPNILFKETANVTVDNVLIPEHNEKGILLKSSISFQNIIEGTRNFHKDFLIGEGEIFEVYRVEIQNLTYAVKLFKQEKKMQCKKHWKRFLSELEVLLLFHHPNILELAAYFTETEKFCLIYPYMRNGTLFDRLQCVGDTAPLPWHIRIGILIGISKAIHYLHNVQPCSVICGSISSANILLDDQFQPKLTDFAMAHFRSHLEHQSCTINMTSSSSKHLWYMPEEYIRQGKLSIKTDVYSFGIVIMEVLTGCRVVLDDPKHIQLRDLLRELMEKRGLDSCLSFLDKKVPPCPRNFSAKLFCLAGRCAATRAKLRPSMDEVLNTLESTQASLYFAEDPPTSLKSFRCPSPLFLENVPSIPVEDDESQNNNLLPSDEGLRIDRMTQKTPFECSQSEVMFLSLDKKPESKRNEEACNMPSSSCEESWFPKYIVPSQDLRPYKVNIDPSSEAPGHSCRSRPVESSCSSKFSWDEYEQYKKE
Chain of ABL2 (P42684 whole entry): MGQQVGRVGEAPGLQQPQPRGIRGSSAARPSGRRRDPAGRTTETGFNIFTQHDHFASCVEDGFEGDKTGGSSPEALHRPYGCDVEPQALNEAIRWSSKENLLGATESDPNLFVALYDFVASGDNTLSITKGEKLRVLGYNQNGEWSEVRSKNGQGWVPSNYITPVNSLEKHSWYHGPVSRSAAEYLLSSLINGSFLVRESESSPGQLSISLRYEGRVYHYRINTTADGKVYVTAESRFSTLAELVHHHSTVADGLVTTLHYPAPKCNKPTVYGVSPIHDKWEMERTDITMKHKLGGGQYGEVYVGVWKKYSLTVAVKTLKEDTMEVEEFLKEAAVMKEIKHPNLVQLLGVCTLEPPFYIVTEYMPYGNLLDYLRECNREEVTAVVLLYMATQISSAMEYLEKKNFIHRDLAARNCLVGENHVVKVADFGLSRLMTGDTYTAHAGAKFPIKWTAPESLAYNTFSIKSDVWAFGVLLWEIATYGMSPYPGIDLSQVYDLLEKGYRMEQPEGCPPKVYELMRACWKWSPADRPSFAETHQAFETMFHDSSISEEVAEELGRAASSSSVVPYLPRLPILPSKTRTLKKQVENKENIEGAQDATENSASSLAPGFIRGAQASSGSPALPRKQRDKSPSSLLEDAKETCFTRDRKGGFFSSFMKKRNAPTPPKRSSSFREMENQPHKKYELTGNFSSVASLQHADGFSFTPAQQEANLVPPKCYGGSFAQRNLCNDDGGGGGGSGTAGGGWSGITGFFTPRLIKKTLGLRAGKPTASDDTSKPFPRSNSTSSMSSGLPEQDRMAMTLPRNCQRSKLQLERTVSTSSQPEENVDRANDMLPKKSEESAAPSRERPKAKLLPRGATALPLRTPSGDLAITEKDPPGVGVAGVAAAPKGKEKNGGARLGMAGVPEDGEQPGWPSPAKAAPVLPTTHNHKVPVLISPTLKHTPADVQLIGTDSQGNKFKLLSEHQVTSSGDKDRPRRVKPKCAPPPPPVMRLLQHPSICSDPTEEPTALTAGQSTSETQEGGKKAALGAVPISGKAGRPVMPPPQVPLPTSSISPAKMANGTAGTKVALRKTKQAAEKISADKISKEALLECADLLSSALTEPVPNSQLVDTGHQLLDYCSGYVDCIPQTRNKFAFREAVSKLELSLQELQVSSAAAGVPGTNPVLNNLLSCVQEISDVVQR
Chain of CDKL2 (Q92772 whole entry): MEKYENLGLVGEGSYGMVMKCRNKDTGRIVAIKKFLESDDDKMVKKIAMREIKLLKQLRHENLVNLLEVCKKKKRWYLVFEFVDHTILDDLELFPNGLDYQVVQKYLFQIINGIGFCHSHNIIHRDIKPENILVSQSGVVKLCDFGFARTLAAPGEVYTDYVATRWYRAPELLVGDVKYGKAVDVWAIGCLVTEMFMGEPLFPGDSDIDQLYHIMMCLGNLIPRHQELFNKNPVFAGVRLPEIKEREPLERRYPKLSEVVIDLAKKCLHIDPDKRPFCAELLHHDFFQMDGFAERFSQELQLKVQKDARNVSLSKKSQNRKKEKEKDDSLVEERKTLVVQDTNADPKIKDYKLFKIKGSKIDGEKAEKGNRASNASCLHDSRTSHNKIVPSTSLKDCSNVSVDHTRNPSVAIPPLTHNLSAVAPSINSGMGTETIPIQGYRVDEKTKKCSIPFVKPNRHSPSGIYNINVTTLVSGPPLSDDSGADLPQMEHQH
Chain of EPHA2 (P29317 24-976): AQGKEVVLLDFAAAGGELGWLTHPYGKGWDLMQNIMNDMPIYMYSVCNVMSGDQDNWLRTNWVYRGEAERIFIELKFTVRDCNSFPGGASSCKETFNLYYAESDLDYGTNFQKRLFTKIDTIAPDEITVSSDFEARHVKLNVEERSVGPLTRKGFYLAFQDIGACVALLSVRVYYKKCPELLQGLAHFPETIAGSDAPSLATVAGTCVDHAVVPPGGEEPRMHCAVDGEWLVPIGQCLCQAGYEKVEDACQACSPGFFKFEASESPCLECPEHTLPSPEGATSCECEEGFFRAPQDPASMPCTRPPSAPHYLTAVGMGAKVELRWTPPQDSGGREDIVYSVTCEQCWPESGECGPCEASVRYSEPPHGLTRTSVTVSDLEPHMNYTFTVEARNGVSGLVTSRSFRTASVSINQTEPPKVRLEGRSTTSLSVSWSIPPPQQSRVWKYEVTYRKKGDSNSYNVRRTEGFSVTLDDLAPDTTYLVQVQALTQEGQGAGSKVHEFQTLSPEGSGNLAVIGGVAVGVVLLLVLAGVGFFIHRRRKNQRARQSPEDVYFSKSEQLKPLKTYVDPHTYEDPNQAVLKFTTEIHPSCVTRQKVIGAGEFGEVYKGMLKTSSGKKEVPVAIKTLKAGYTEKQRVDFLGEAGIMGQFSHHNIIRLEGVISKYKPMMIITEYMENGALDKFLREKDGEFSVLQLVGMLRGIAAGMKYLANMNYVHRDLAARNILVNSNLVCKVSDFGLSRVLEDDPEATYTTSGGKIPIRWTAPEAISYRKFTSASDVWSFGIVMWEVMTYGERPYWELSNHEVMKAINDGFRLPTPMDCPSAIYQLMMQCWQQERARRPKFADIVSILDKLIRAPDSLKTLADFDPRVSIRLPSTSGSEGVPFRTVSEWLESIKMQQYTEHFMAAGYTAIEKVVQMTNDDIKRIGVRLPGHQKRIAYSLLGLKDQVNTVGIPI
Chain of HPK1 (Q92918 whole entry): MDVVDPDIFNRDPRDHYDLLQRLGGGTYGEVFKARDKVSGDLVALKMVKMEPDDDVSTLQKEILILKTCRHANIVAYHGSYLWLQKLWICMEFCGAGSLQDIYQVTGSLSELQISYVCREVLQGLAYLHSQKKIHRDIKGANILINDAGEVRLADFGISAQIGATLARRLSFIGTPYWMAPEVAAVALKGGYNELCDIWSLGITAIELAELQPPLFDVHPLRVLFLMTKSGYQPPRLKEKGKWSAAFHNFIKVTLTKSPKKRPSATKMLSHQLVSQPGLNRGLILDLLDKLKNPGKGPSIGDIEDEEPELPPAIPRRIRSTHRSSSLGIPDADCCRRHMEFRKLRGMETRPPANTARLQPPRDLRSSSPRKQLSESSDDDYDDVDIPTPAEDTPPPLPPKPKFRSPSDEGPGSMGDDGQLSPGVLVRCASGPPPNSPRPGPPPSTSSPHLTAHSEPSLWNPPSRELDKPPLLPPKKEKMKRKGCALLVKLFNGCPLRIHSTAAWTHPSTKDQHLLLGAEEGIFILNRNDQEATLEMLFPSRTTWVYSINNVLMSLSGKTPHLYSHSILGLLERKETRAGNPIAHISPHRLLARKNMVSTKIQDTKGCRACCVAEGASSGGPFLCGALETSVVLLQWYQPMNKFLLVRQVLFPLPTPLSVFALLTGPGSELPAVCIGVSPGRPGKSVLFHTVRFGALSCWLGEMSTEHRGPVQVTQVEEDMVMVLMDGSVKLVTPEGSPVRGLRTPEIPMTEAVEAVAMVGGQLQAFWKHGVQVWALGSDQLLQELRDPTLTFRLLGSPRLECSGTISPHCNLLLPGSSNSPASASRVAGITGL
Chain of CDK5 (Q15078 whole entry): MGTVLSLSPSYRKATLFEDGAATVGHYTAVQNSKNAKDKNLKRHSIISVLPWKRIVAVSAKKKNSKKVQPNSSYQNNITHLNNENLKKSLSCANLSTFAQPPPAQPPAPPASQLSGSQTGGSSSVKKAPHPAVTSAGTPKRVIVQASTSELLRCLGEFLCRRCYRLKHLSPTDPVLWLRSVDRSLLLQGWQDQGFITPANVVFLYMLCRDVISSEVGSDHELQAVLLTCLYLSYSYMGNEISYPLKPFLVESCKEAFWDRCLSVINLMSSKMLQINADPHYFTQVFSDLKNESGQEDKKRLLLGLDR
Chain of CDK5 (Q00535 whole entry): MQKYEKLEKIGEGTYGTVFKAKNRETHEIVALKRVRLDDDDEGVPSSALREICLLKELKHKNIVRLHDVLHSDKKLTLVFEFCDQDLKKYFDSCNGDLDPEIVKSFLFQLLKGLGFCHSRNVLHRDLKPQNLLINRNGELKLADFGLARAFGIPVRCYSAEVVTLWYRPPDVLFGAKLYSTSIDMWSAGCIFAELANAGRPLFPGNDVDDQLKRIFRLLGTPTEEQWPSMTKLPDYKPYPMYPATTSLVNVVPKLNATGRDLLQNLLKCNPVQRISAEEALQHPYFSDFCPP
Chain of DAPK2 (Q9UIK4 whole entry): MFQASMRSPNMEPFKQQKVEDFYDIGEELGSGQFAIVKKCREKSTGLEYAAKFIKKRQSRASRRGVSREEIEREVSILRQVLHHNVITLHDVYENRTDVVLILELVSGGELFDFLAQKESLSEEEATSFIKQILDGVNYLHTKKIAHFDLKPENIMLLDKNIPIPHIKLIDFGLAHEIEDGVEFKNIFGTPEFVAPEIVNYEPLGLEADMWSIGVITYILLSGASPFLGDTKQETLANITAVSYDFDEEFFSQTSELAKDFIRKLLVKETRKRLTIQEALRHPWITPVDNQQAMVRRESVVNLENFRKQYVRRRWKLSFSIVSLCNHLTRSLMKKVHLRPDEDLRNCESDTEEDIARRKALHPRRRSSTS

With CN1C(=O)[C@@H](N2CCc3c(nn(Cc4ccccc4)c3C(N)=O)C2=O)COc2cc(Cl)ccc21 [Compound 10, (S)-2-benzyl-6-(8-chloro-5-methyl-4-oxo-2,3,4,5-tetrahydrobenzo[b][1,4]oxazepin-3-yl)-7-oxo-4,5,6,7-tetrahydro-2H-pyrazolo[3,4-c]pyridine-3-carboxamide] the remaining binding at 1 µM [1] was 80%, the remaining binding at 1 µM [2] was 82% and the remaining binding at 1 µM [3] was 98%. It also gave a remaining binding at 1 µM [4] of 86%, a remaining binding at 1 µM [5] of 67% and a remaining binding at 1 µM [6] of 77%. It also gave a remaining binding at 1 µM ([7]; 1000 nM) of 100%, a remaining binding at 0.1 µM ([7]; compound concentration 100 nM, Entrez CASK) of 80% and a remaining binding at 1 µM ([8]; 1000 nM) of 100%. For the same compound, the remaining binding at 0.1 µM ([8]; compound concentration 100 nM, Entrez IRAK3) was 95%, the remaining binding at 1 µM [9] was 90% and the remaining binding at 1 µM [10] was 86%. The remaining binding at 1 µM [11] was 94%, the remaining binding at 1 µM ([12]; 1000 nM) was 100% and the remaining binding at 0.1 µM ([12]; compound concentration 100 nM, Entrez CABC1) was 100%. For the same compound, the remaining binding at 1 µM [13] was 90%, the remaining binding at 1 µM ([14]; 1000 nM) was 100% and the remaining binding at 0.1 µM ([14]; compound concentration 100 nM, Entrez CDKL2) was 100%. For the same compound, the remaining binding at 1 µM [15] was 85%, the remaining binding at 1 µM [16] was 90% and the remaining binding at 1 µM [17] was 73%. It also gave a remaining binding at 1 µM ([18]; 1000 nM) of 100%, a remaining binding at 0.1 µM ([18]; compound concentration 100 nM, Entrez DDR1) of 77% and a remaining binding at 1 µM [19] of 77%. The remaining binding at 1 µM [20] was 96%, the remaining binding at 1 µM [21] was 91% and the remaining binding at 0.1 µM [22] was 81%. For the same compound, the remaining binding at 0.1 µM [23] was 87%, the remaining binding at 1 µM ([24]; 1000 nM) was 100% and the remaining binding at 0.1 µM ([24]; compound concentration 100 nM, Entrez ABL1) was 100%. For the same compound, the remaining binding at 1 µM [25] was 88%, the remaining binding at 1 µM ([26]; 1000 nM) was 100% and the remaining binding at 0.1 µM ([26]; compound concentration 100 nM, Entrez EPHA2) was 100%. The remaining binding at 1 µM ([27]; 1000 nM) was 100%, the remaining binding at 0.1 µM ([27]; compound concentration 100 nM, Entrez ABL2) was 100% and the remaining binding at 1 µM ([28]; 1000 nM) was 100%. For the same compound, the remaining binding at 0.1 µM ([28]; compound concentration 100 nM, Entrez MAP3K5) was 91%, the remaining binding at 1 µM [29] was 91% and the remaining binding at 0.1 µM [30] was 100%. The remaining binding at 1 µM ([31]; 1000 nM) was 100%, the remaining binding at 0.1 µM ([31]; compound concentration 100 nM, Entrez MAP4K1) was 99% and the remaining binding at 1 µM [32] was 91%. The remaining binding at 1 µM ([33]; 1000 nM) was 99%, the remaining binding at 0.1 µM ([33]; compound concentration 100 nM, Entrez CDK5) was 78% and the remaining binding at 1 µM [34] was 87%. It also gave a remaining binding at 0.1 µM [35] of 92%, a remaining binding at 1 µM [36] of 80% and a remaining binding at 1 µM [37] of 82%.
